According to patent US10604554B2, “Double-acylated GLP-1 derivatives” (Novo Nordisk A/S, priority 2012, dated 2020):
Where two headings read alike, the source gives them in different places. Numbered stars: 1 amine (or outer) side, 2 acyl side, 3 side chain; on linkers, the order of the positions; unused ones are H or OH. Square brackets hold non-standard residues; d marks the D form. Side chains are listed from the residue outwards. Peptide text beside a SMILES is read from it. * marks the point of attachment. C18 diacid = O=C(O)CCCCCCCCCCCCCCCCC(=O)*; γGlu = O=C(O)[C@H](CCC(=O)[*:2])N[*:1]; εLys = N[C@@H](CCCCN[*:1])C(=O)[*:2]; AEEA = NCCOCCOCC(=O)O; Aib = CC(C)(N)C(=O)O

Key:
human GLP-1 receptor = molecular target: T1, human GLP-1 receptor (Homo sapiens, UniProt P43220); experiment: In vitro potency (AlphaScreen cAMP, membranes); format: biochemical
T1 construct: expressed in transfected cells; host or cells: BHK cells, clone FCW467-12A/KZ10-1 (parent line BHKTS13), further transfected with CRE luciferase
Method: The purpose of this example is to test the activity, or potency, of the GLP-1 derivatives in vitro.
Purified plasma membranes from a stable transfected cell line, BHK467-12A (tk-ts13), expressing the human GLP-1 receptor were stimulated with the GLP-1 analogue or derivative in question, and the potency of cAMP production was measured using the AlphaScreen™ cAMP Assay Kit from Perkin Elmer Life Sciences. The basic principle of the AlphaScreen Assay is a competition between endogenous cAMP and exogenously added biotin-cAMP. The capture of cAMP is achieved by using a specific antibody conjugated to acceptor beads.
A stable transfected cell line and a high expressing clone were selected for screening. The cells were grown at 5% CO2 in DMEM, 5% FCS, 1% Pen/Strep (Penicillin/Streptomycin) and 0.5 mg/ml of the selection marker G418.
Cells at approximately 80% confluence were washed 2× with PBS and harvested with Versene (aqueous solution of the tetrasodium salt of ethylenediaminetetraacetic acid), centrifuged 5 min at 1000 rpm and the supernatant removed. The additional steps were all performed on ice. The cell pellet was homogenised by the Ultrathurax for 20-30 s in 10 ml of Buffer 1 (20 mM Na-HEPES, 10 mM EDTA, pH=7.4), centrifuged 15 min at 20,000 rpm and the pellet resuspended in 10 ml of Buffer 2 (20 mM Na-HEPES, 0.1 mM EDTA, pH=7.4). The suspension was homogenised for 20-30 s and centrifuged 15 min at 20,000 rpm. Suspension in Buffer 2, homogenisation and centrifugation was repeated once and the membranes were resuspended in Buffer 2. The protein concentration was determined and the membranes stored at −80° C. until use.
The assay was performed in flat-bottom 96-well plates (Costar cat. no:3693). The final volume per well was 50 μl.
AlphaScreen cAMP Assay Kit from Perkin Elmer Life Sciences (cat. No: 6760625M); containing Anti-cAMP Acceptor beads (10 U/μl), Streptavidin Donor beads (10 U/μl) and Biotinylated-cAMP (133 U/μl).
AlphaScreen Buffer, pH=7.4: 50 mM TRIS-HCl (Sigma, cat.no: T3253); 5 mM HEPES (Sigma, cat.no: H3375); 10 mM MgCl2, 6H2O (Merck, cat.no: 5833); 150 mM NaCl (Sigma, cat.no: S9625); 0.01% Tween (Merck, cat.no: 822184). The following was added to the AlphaScreen Buffer prior to use (final concentrations indicated): BSA (Sigma, cat. no. A7906): 0.1%; IBMX (Sigma, cat. no. 15879): 0.5 mM; ATP (Sigma, cat. no. A7699): 1 mM; GTP (Sigma, cat. no. G8877): 1 uM.
cAMP standard (dilution factor in assay=5): cAMP Solution: 5 μL of a 5 mM cAMP-stock+495 μL AlphaScreen Buffer.
Membranes were prepared from hGLP-1/BHK 467-12A cells with a concentration of 6 μg/well corresponding to 0.6 mg/ml (the amount of membranes used pr. well may vary)
“No membranes”: Acceptor Beads (15 μg/ml final) in AlphaScreen buffer
“6 μg/well membranes”: membranes+Acceptor Beads (15 μg/ml final) in AlphaScreen buffer
An aliquot (10 μl) of “No membranes” was added to the cAMP standard (per well in duplicate wells) and the positive and negative controls
An aliquot (10 μl) of “6 μg/well membranes” was added to GLP-1 and analogues (per well in duplicate or triplicate wells)
Pos. Control: 10 μl “no membranes”+10 μl AlphaScreen Buffer
Neg. Control: 10 μl “no membranes”+10 μl cAMP Stock Solution (50 μM)
As the beads are sensitive to direct light, any handling was in the dark (as dark as possible), or in green light. All dilutions were made on ice.
1. Make the AlphaScreen Buffer.
2. Dissolve and dilute the GLP-1/Analogues/cAMP standard in AlphaScreen Buffer.
3. Make the Donor Beads Solution by mixing streptavidin donor beads (2 units/well) and biotinylated cAMP (1.2 units/well) and incubate 20-30 min in the dark at room temperature
4. Add the cAMP/GLP-1/Analogues to the plate: 10 μl per well.
5. Prepare membrane/Acceptor Beads solution and add this to the plates: 10 μl per well.
6. Add the Donor Beads: 30 μl per well.
7. Wrap the plate in aluminum foil and incubate on the shaker for 3 hours (very slowly) at RT.

[1] = Pharmacokinetic (PK) study in rat; conditions: male, Sprague Dawley, in vivo, iv, 6 nmol/kg
[2] = cAMP formation in membranes from BHK467-12A cells expressing human GLP-1 receptor, read-out: In vitro potency (AlphaScreen) EC50

T1 sequence (P43220 24-463): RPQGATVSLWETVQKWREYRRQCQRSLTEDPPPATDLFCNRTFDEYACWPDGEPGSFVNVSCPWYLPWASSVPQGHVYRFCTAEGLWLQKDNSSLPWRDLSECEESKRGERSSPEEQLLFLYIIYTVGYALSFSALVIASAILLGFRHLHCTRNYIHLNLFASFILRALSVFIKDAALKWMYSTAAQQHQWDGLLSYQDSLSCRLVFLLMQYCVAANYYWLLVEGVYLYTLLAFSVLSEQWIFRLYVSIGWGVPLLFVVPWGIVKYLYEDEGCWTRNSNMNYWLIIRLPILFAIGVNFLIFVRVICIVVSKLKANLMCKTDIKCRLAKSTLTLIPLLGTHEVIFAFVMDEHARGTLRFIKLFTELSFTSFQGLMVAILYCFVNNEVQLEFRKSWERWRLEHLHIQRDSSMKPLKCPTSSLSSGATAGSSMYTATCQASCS

SMILES	EC50 (human GLP-1 receptor; [2])	EC50 (human GLP-1 receptor)	half-life [1]
CC[C@H](C)[C@H](NC(=O)[C@H](Cc1ccccc1)NC(=O)[C@H](CCC(=O)O)NC(=O)[C@H](CCCCNC(=O)[C@@H](N)CCCCNC(=O)COCCOCCNC(=O)COCCOCCNC(=O)CC[C@H](NC(=O)CCCCCCCCCCCCCCCCC(=O)O)C(=O)O)NC(=O)[C@H](C)NC(=O)[C@H](C)NC(=O)[C@H](CCC(N)=O)NC(=O)[C@H](CCC(=O)O)NC(=O)[C@H](CCC(=O)O)NC(=O)[C@H](CC(C)C)NC(=O)[C@H](Cc1ccc(O)cc1)NC(=O)[C@H](CO)NC(=O)[C@H](CO)NC(=O)[C@@H](NC(=O)[C@H](CC(=O)O)NC(=O)[C@H](CO)NC(=O)[C@@H](NC(=O)[C@H](Cc1ccccc1)NC(=O)[C@@H](NC(=O)CNC(=O)[C@H](CCC(=O)O)NC(=O)C(C)(C)NC(=O)[C@@H](N)Cc1c[nH]cn1)[C@@H](C)O)[C@@H](C)O)C(C)C)C(=O)N[C@@H](C)C(=O)N[C@@H](Cc1c[nH]c2ccccc12)C(=O)N[C@@H](CC(C)C)C(=O)N[C@H](C(=O)N[C@@H](CCC(N)=O)C(=O)NCC(=O)N[C@@H](CCCNC(=N)N)C(=O)N[C@@H](CCCCNC(=O)[C@@H](N)CCCCNC(=O)COCCOCCNC(=O)COCCOCCNC(=O)CC[C@H](NC(=O)CCCCCCCCCCCCCCCCC(=O)O)C(=O)O)C(=O)O)C(C)C [Example 28, N^ε26-[(2S)-2-amino-6-[[2-[2-[2-[[2-[2-[2-[[(4S)-4-carboxy-4-(17-carboxyheptadecanoylamino)butanoyl]amino]ethoxy]ethoxy]acetyl]amino]ethoxy]ethoxy]acetyl]amino]hexanoyl], N^ε37-[(2S)-2-amino-6-[[2-[2-[2-[[2-[2-[2-[[(4S)-4-carboxy-4-(17-carboxyheptadecanoylamino)butanoyl]amino]ethoxy]ethoxy]acetyl]amino]ethoxy]ethoxy]acetyl]amino]hexanoyl]-[Aib^8,Glu^22,Gln^34, Lys^37]-GLP-1-(7-37)-peptide] (H-H[Aib]EGTFTSDVSSYLEEQAAK([εLys-AEEA-AEEA-γGlu-C18 diacid])EFIAWLVQGRK([εLys-AEEA-AEEA-γGlu-C18 diacid])-OH; N-terminus and C-terminus assumed)	7.25 nM		
CC[C@H](C)[C@H](NC(=O)[C@H](Cc1ccccc1)NC(=O)[C@H](CCC(=O)O)NC(=O)[C@H](CCCCNC(=O)[C@@H](N)CCCCNC(=O)COCCOCCNC(=O)COCCOCCNC(=O)CC[C@H](NC(=O)CCCCCCCCCOc1ccc(C(=O)O)cc1)C(=O)O)NC(=O)[C@H](C)NC(=O)[C@H](C)NC(=O)[C@H](CCC(N)=O)NC(=O)CNC(=O)[C@H](CCC(=O)O)NC(=O)[C@H](CC(C)C)NC(=O)[C@H](Cc1ccc(O)cc1)NC(=O)[C@H](CO)NC(=O)[C@H](CO)NC(=O)[C@@H](NC(=O)[C@H](CC(=O)O)NC(=O)[C@H](CO)NC(=O)[C@@H](NC(=O)[C@H](Cc1ccccc1)NC(=O)[C@@H](NC(=O)CNC(=O)[C@H](CCC(=O)O)NC(=O)C(C)(C)NC(=O)[C@@H](N)Cc1c[nH]cn1)[C@@H](C)O)[C@@H](C)O)C(C)C)C(=O)N[C@@H](C)C(=O)N[C@@H](Cc1c[nH]c2ccccc12)C(=O)N[C@@H](CC(C)C)C(=O)N[C@H](C(=O)N[C@@H](CCCNC(=N)N)C(=O)NCC(=O)N[C@@H](CCCNC(=N)N)C(=O)N[C@@H](CCCCNC(=O)[C@@H](N)CCCCNC(=O)COCCOCCNC(=O)COCCOCCNC(=O)CC[C@H](NC(=O)CCCCCCCCCOc1ccc(C(=O)O)cc1)C(=O)O)C(=O)O)C(C)C [Example 5]		0.033 nM	
CC[C@H](C)[C@H](NC(=O)[C@H](Cc1ccccc1)NC(=O)[C@H](CCC(=O)O)NC(=O)[C@H](CCCCNC(=O)[C@@H](N)CCCCNC(=O)COCCOCCNC(=O)CC[C@H](NC(=O)CC[C@H](NC(=O)CCCCCCCCCCCOc1ccc(C(=O)O)cc1)C(=O)O)C(=O)O)NC(=O)[C@H](C)NC(=O)[C@H](C)NC(=O)[C@H](CCC(N)=O)NC(=O)CNC(=O)[C@H](CCC(=O)O)NC(=O)[C@H](CC(C)C)NC(=O)[C@H](Cc1ccc(O)cc1)NC(=O)[C@H](CO)NC(=O)[C@H](CO)NC(=O)[C@@H](NC(=O)[C@H](CC(=O)O)NC(=O)[C@H](CO)NC(=O)[C@@H](NC(=O)[C@H](Cc1ccccc1)NC(=O)[C@@H](NC(=O)CNC(=O)[C@H](CCC(=O)O)NC(=O)C(C)(C)NC(=O)[C@@H](N)Cc1c[nH]cn1)[C@@H](C)O)[C@@H](C)O)C(C)C)C(=O)N[C@@H](C)C(=O)N[C@@H](Cc1c[nH]c2ccccc12)C(=O)N[C@@H](CC(C)C)C(=O)N[C@H](C(=O)N[C@@H](CCCNC(=N)N)C(=O)NCC(=O)N[C@@H](CCCNC(=N)N)C(=O)N[C@@H](CCCCNC(=O)[C@@H](N)CCCCNC(=O)COCCOCCNC(=O)CC[C@H](NC(=O)CC[C@H](NC(=O)CCCCCCCCCCCOc1ccc(C(=O)O)cc1)C(=O)O)C(=O)O)C(=O)O)C(C)C [Example 15, N^ε26-[(2S)-2-amino-6-[[2-[2-[2-[[(4S)-4-carboxy-4-[[(4S)-4-carboxy-4-[12-(4-carboxyphenoxy)dodecanoylamino]butanoyl]amino]butanoyl]amino]ethoxy]ethoxy]acetyl]amino]hexanoyl], N^ε37-[(2S)-2-amino-6-[[2-[2-[2-[[(4S)-4-carboxy-4-[[(4S)-4-carboxy-4-[12-(4-carboxyphenoxy)dodecanoylamino]butanoyl]amino]butanoyl]amino]ethoxy]ethoxy]acetyl]amino]hexanoyl]-[Aib^8,Arg^34,Lys^37]-GLP-1-(7-37)-peptide]		0.155 nM	20 h
CC[C@H](C)[C@H](NC(=O)[C@H](Cc1ccccc1)NC(=O)[C@H](CCC(=O)O)NC(=O)[C@H](CCCCNC(=O)[C@@H](N)CCCCNC(=O)[C@@H](N)CCCCNC(=O)CC[C@H](NC(=O)CCCCCCCCCCCCC(=O)O)C(=O)O)NC(=O)[C@H](C)NC(=O)[C@H](C)NC(=O)[C@H](CCC(N)=O)NC(=O)CNC(=O)[C@H](CCC(=O)O)NC(=O)[C@H](CC(C)C)NC(=O)[C@H](Cc1ccc(O)cc1)NC(=O)[C@H](CO)NC(=O)[C@H](CO)NC(=O)[C@@H](NC(=O)[C@H](CC(=O)O)NC(=O)[C@H](CO)NC(=O)[C@@H](NC(=O)[C@H](Cc1ccccc1)NC(=O)[C@@H](NC(=O)CNC(=O)[C@H](CCC(=O)O)NC(=O)C(C)(C)NC(=O)[C@@H](N)Cc1c[nH]cn1)[C@@H](C)O)[C@@H](C)O)C(C)C)C(=O)N[C@@H](C)C(=O)N[C@@H](Cc1c[nH]c2ccccc12)C(=O)N[C@@H](CC(C)C)C(=O)N[C@H](C(=O)N[C@@H](CCCNC(=N)N)C(=O)NCC(=O)N[C@@H](CCCNC(=N)N)C(=O)N[C@@H](CCCCNC(=O)[C@@H](N)CCCCNC(=O)[C@@H](N)CCCCNC(=O)CC[C@H](NC(=O)CCCCCCCCCCCCC(=O)O)C(=O)O)C(=O)O)C(C)C [Example 2, N^ε26-[(2S)-2-amino-6-[[(2S)-2-amino-6-[[(4S)-4-carboxy-4-(13-carboxytridecanoylamino)butanoyl]amino]hexanoyl]amino]hexanoyl], N^ε37-[(2S)-2-amino-6-[[(2S)-2-amino-6-[[(4S)-4-carboxy-4-(13-carboxytridecanoylamino)butanoyl]amino]hexanoyl]amino]hexanoyl]-[Aib^8,Arg^34,Lys^37]-GLP-1-(7-37)-peptide]	0.044 nM		
